Our source for the log k, MIC and IC50 values is article PMC6268061, “Investigation of the Biological Properties of (Hetero)Aromatic Thiosemicarbazones” (Molecules, 2012).

What is called MIC is the lowest concentration that inhibits growth of the organism. One may read the IC50 as the concentration that inhibits the measured activity by half.

Read-outs that look alike come from different tables or passages of the source. Where only a bound is given, the exact number is not on record here.

Series [1] in a line: Lipophilicity determination using RP-HPLC (capacity factor, log k). Conditions: C18, MeOH 55%/H2O 45%. Type of series: physicochemical. The source says:
Reversed phase high performance liquid chromatography (RP-HPLC) methods have become popular and are widely used for lipophilicity measurements. The general procedure is the measurement of the directly accessible retention time under isocratic conditions using varying amounts of methanol as an organic modifier in the mobile phase using RP columns and calculating the logarithm of the capacity factors (log k). Log k is the logarithm of the capacity factors in chromatographic approaches that is related to the partitioning of a compound between a mobile and a (pseudo-)stationary phase. Log k is used as the lipophilicity index converted to log P scale.
A Waters Alliance 2695 XE HPLC separation module and a Waters Photodiode Array Detector 2996 (Waters Corp., Milford, MA, USA) were used. A Symmetry® C18 5 μm, 4.6 × 250 mm, Part No. WAT054275 (Waters Corp.) chromatographic column was used. The HPLC separation process was monitored using Empower™ 2 Chromatography Data Software, Waters 2009 (Waters Corp.). A mixture of MeOH p.a. (55%) and H2O-HPLC-Mili-Q Grade (45%) was used as a mobile phase. The total flow of the column was 0.9 mL/min, injection volume 30 μL, column temperature 30 °C and sample temperature 10 °C. A detection wavelength of 210 nm was chosen. A KI methanolic solution was used for the determination of dead time (tD). Retention times (tR) were measured in minutes. The capacity factors k were calculated using the Empower™ 2 Chromatography Data Software according to the formula k = (tR − tD)/tD, where tR is the retention time of the solute, whereas tD denotes the dead time obtained using an unretained analyte. Log k, calculated from the capacity factor k, is used as the lipophilicity index converted to log P scale.

For series [2], the system named is Candida albicans ATCC 44859. Nature of the series: In vitro antifungal susceptibility, broth microdilution. Format: cell-based. Particulars: ATCC44859, 24 h and 48 h, only one value presented (inactive), read-out: MIC (IC80) CA. On the technique in general: Dilution methods test growth across graded concentrations, often in twofold steps.
Another series has as its system Candida tropicalis 156. The series is described as above. Format: cell-based. Particulars: Candida tropicalis, 156; 24 h and 48 h, only one value presented (inactive); read-out: MIC (IC80) CT.
Another series relates to Candida krusei ATCC 6258. The description is as above. Type of series: cell-based. Conditions: Pichia kudriavzevii, ATCC6258; 24 h and 48 h, only one value presented (inactive); read-out: MIC (IC80) CK.
The next series has as its system Candida glabrata 20/I. The description is as above. Particulars: Nakaseomyces glabratus, 24 h and 48 h, only one value presented (inactive), read-out: MIC (IC80) CG. Type of series: cell-based.
In series [3] the test system is Trichosporon beigelii 1188. The series is described as above. Conditions: Trichosporon beigelii, 1188; 24 h and 48 h, only one value presented (inactive); read-out: MIC (IC80) TB. Format: cell-based. From the text: The broth microdilution test was used for the assessment of the in vitro antifungal activity of the synthesized compounds against Candida albicans ATCC 44859 (CA), Candida tropicalis 156 (CT), Candida krusei ATCC 6258 (CK), Candida glabrata 20/I (CG), Trichosporon beigelii 1188 (TB), Aspergillus fumigatus 231 (AF), Absidia corymbifera 272 (AC), and Trichophyton mentagrophytes 445 (TM). Fluconazole (FLU) was used as the standard since it is a clinically used antimycotic drug. The procedure was performed using a twofold dilution of the compounds in RPMI 1640 (Sevapharma a.s., Prague, Czech Republic) buffered to pH 7.0 with […] of 3-morpholino-propane-1-sulfonic acid (MOPS, Sigma, Prague, Czech Republic). The final concentrations of the compounds ranged from 500 to 0.975 μmol/L. Drug-free controls were included. The determination of minimum inhibitory concentration (MIC) was performed according to the Clinical and Laboratory Standards Institute (CLSI, formerly NCCLS) reference protocol M27-A2 for yeasts (IC80 value) and M38-A for moulds (IC50 value). IC80 and IC50 were defined as an 80% resp. 50% or greater reduction in growth in comparison with the control. The values of MICs were determined after 24 and 48 h of static incubation at 35 °C. The final MICs for T. mentagrophytes, were determined after 72 and 120 h of incubation.

The subject of series [4] is Aspergillus fumigatus 231. The series is described as above. Type of series: cell-based. Particulars: Aspergillus fumigatus, 231; 24 h and 48 h, only one value presented (inactive); read-out: MIC (IC50) AF.
A further series concerns Absidia corymbifera 272. The description is as above. Type of series: cell-based. Conditions: Lichtheimia corymbifera, 272; 24 h and 48 h, only one value presented (inactive); read-out: MIC (IC50) AC.
Series [5] has as its system Trichophyton mentagrophytes 445. Described as above. Format: cell-based. Particulars: Trichophyton mentagrophytes, 445; 72 h and 120 h, only one value presented (inactive); read-out: MIC (IC50) TM.
The test system of series [6] is HCT-116 human colon cancer cells (p53 wild type). Also on record: method as in PMID 22858101. Conditions: footnote 3: anticancer activity described elsewhere ref [34],[44]; cited from earlier work.
The test system of series [7] is photosynthetic electron transport (PET) in spinach chloroplasts. Nature of the series: Inhibition of photosynthetic electron transport (PET) in spinach chloroplasts. Format: biochemical, Spinacia oleracea L. Particulars: DCPIP photoreduction. On the procedure: Chloroplasts were prepared from spinach (Spinacia oleracea L.) according to Masarovicova and Kralova. The inhibition of the photosynthetic electron transport (PET) in spinach chloroplasts was determined spectrophotometrically (Genesys 6, Thermo Fisher Scientific, Waltham, MA, USA) using an artificial electron acceptor 2,6-dichlorophenol-indophenol (DCIPP) according to Kralova et al. and the rate of photosynthetic electron transport was monitored as a photoreduction of DCPIP. The measurements were carried out in a phosphate buffer (0.02 mol/L, pH 7.2) containing sucrose (0.4 mol/L), MgCl2 (0.005 mol/L) and NaCl (0.015 mol/L). The chlorophyll content was 30 mg/L in these experiments and the samples were irradiated (~100 W/m^2 with 10 cm distance) with a halogen lamp (250 W) using a 4 cm water filter to prevent warming of the samples (suspension temperature 22 °C). The compounds studied were dissolved in DMSO due to their limited water solubility. […] The inhibitory efficiency of the compounds studied was expressed by IC50 values, i.e., by the molar concentration of the compounds that caused a 50% decrease in the oxygen evolution rate relative to the untreated control.

The test system of series [8] is HCT-116 human colon cancer cells (p53 wild type). Nature of the series: In vitro antiproliferative activity, MTS assay. Type of series: cell-based. Particulars: HCT-116, 72 h incubation, MTS, read-out: HCT-116 IC50. As for the experimental part: The antiproliferative activity of all of the compounds was examined against the human colon cancer (HCT-116) cell line using an MTS assay. The HCT-116 p53 wild type cell line was chosen on the basis of our former experience and some results on the activity of quinoline-based thiosemicarbazones that was published recently. Namely, compounds 4a–l have been tested previously for their wide-ranging anticancer activity. The antiproliferative activity of the compounds evaluated was assessed using Doxorubicin as a reference compound. In general, quinoline-based thiosemicarbazones 4 seem to have a much better anticancer activity than halogenophenyl compounds 3. Thus, the quinoline nucleus can be defined as being crucial for antiproliferative activity. A more detailed analysis of the anticancer activity of quinoline-based thiosemicarbazone is available. […] Nevertheless, some more general conclusions can be drawn from the gathered data. […] The free amino group or substitution pattern with small substituents such as methyl or ethyl are favorable for activity. According to our former results the chelating ability of the compounds may be one of the prerequisites of the antiproliferative activity. In this study we have measured the UV-VIS spectra of the compounds in presence of various concentration of Fe^3+ cations to observe its chelating potency (supplementary material). […] However as 4j give also two points at 330 and 385 nm, iron chelating ability should be regarded only as one of the factor influencing the biological activity.
The human colon cancer cell line HCT116 with the wild type p53 gene (p53^+/+) were obtained from Maria Sklodowska-Curie Memorial Cancer Center in Gliwice, Poland. Briefly, the cells were seeded in 96-well plates (3 × 10^3 cells/well) in cellular proliferation assays 24 h before the addition of the chelators. The assay was performed following a 72 h incubation with varying concentrations of the agents. Each compound was tested in triplicate in a single experiment with each experiment being repeated 3 times. After 72 h incubation with the compounds being investigated, 20 µL of MTS solution was added to each well (100 µL) and incubated for 1 h at 37 °C. The optical densities of the samples were analyzed at 490 nm. Results were expressed as a percentage of the control. The inhibitory concentration (IC50) was defined as the compound concentration necessary to reduce the absorbance to 50% of the untreated control.

Turning to `NC(=S)N/N=C/c1cccc(Cl)c1Cl` [Compound 3a, (E)-2-(2,3-Dichlorobenzylidene)hydrazinecarbothioamide], the log k in series [1] is listed as 0.6892. Also, the MIC (in series [2]; with Candida tropicalis 156; in the series with Candida krusei ATCC 6258; in the series with Candida glabrata 20/I; in series [3]) was more than 125 µM each time. For the same compound, the half-maximal inhibitory concentration (IC50) was more than 125 µM in series [4], more than 125 µM in the series with Absidia corymbifera 272, more than 125 µM in [5] and 41.5 ± 1.7 µM in series [6].

In the case of `CNC(=S)N/N=C/c1cccc(Cl)c1Cl` [Compound 3b, (E)-2-(2,3-Dichlorobenzylidene)-N-methylhydrazinecarbothioamide], the log k in series [1] turned out to be 0.7357. Besides, the IC50 is 170 µM in series [7]; more than 500 µM in series [4]; more than 500 µM with Absidia corymbifera 272; more than 500 µM in [5]; more than 60 µM in series [8]. The MIC (in series [2]; in the series with Candida tropicalis 156; with Candida krusei ATCC 6258; with Candida glabrata 20/I; in series [3]) was more than 500 µM in each case.

The compound `S=C(N/N=C/c1cccc(Cl)c1Cl)Nc1ccccc1` [Compound 3e, (E)-2-(2,3-dichlorobenzylidene)-N-phenylhydrazinecarbothioamide] yielded a log k in series [1] of 0.9230. Besides, the IC50 was 499 µM in series [7]; more than 125 µM in series [4]; more than 125 µM with Absidia corymbifera 272; more than 125 µM in [5]; more than 60 µM in series [8]. Also, the minimum inhibitory concentration (MIC) (in [2]; in the series with Candida tropicalis 156; in the series with Candida krusei ATCC 6258; in the series on Candida glabrata 20/I; in series [3]) was more than 125 µM in each case.

Turning to `NC(=S)N/N=C/c1ccc(Cl)c(Cl)c1` [Compound 3f, (E)-2-(3,4-Dichlorobenzylidene)hydrazinecarbothioamide], the log k in series [1] stood at 0.6974. For the same compound, the IC50 in [7] is 283 µM; in series [4] it was more than 500 µM; in the series with Absidia corymbifera 272, more than 500 µM; in [5], more than 500 µM; in [8], 46 ± 0.9 µM. Also, the minimal inhibitory concentration (MIC) (in series [2]; with Candida tropicalis 156; in the series on Candida krusei ATCC 6258; in the series on Candida glabrata 20/I; in [3]) was more than 500 µM in each case.

In turn, `CNC(=S)N/N=C/c1ccc(Cl)c(Cl)c1` [Compound 3g, (E)-2-(3,4-Dichlorobenzylidene)-N-methylhydrazinecarbothioamide] returned a log k in [1] of 0.7563. The concentration for half-maximal inhibition (IC50) was 136 µM in [7]; more than 125 µM in series [4]; more than 125 µM in the series on Absidia corymbifera 272; more than 125 µM in [5]; 55.5 ± 6.2 µM in series [8]. In addition, the MIC (in [2]; in the series with Candida tropicalis 156; with Candida krusei ATCC 6258; in the series with Candida glabrata 20/I; in [3]) was more than 125 µM each time.

Compound `CCNC(=S)N/N=C/c1ccc(Cl)c(Cl)c1` [Compound 3i, (E)-2-(3,4-Dichlorobenzylidene)-N-ethylhydrazinecarbothioamide] yielded a log k in series [1] of 0.8415. Moreover, the IC50 in series [7] was 280 µM; in series [4], more than 500 µM; in the series on Absidia corymbifera 272, more than 500 µM; in series [5], more than 500 µM; in [8], 48.5 ± 2.8 µM. Further, the MIC (in [2]; in the series with Candida tropicalis 156; with Candida krusei ATCC 6258; in the series on Candida glabrata 20/I; in [3]) was more than 500 µM throughout.

Turning to `S=C(N/N=C/c1ccc(Cl)c(Cl)c1)Nc1ccccc1` [Compound 3j, (E)-2-(3,4-Dichlorobenzylidene)-N-phenylhydrazinecarbothioamide], the log k in [1] is reported as 0.9774. The IC50 is 426 µM in series [7]; more than 125 µM in series [4]; more than 125 µM in the series with Absidia corymbifera 272; more than 125 µM in [5]; more than 60 µM in [8]. For the same compound, the MIC (in series [2]; with Candida tropicalis 156; with Candida krusei ATCC 6258; in the series with Candida glabrata 20/I; in series [3]) was more than 125 µM in each case.
